# According to patent US20090203695A1, “Compounds IV” (Biovitrum AB, priority 2007, published 2009):
# How the values were obtained:
# JEG-3 cells [1] = settings: JEG-3 cells (choriocarcinoma cell line); Biol. Reprod. (2007) 76: 203-10; cited from earlier work
# JEG-3 cells [2] = experiment: [3H]-thymidine incorporation in JEG-3 cells (JEG-3 protocol); assay type: cell-based
# Method: In JEG-3 cells (choriocarcinoma cell line) leptin is able to stimulate proliferation up to 3 fold (Biol. Reprod. (2007) 76: 203-10). […] The radioactivity incorporated by the cells is an index of their proliferative activity and is measured in counts per minute (CPM) with a liquid scintillation beta counter.
# This finding can be applied to test whether a compound is able to either reproduce the effect of leptin on cell proliferation (leptin receptor agonist mimetic) (i.e., a given compound will cause an increase in incorporated [^3H]-Thymidine by the cells) or to inhibit the effect of leptin (antagonistic effect) by preventing the leptin-mediated increase in [^3H]-thymidine incorporation.
# This approach has the advantage of using a non-recombinant system and has reasonable reproducibility and robustness.
substance,measurement,setting,value
Leptin: hormone synthesized in fat cells that is believed to act in the hypothalamus to reduce food intake and body weight,stimulation of proliferation,JEG-3 cells [1],up to 3 fold
same,concentration of maximal effect on [3H]-thymidine incorporation,JEG-3 cells [2]; FIG. 4,100 nM
same,EC50,"JEG-3 cells [2]; FIG. 4, read-out: EC50, increase in [3H]-thymidine incorporation",2.1 nM
